The nature of data set [1]: Determination of compound Cmax and AUC after oral gavage (plasma LC-MS/MS). The note with it: Sprague-Dawley, rat, plasma, po, Structure (I) examples. The format is in vivo, Sprague-Dawley rats. In short, it runs like this:
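Plasma exposure measured by LC-MS/MS after acetonitrile precipitation with internal standard, quantified against a standard curve made in plasma. Compound given orally by gavage to Sprague-Dawley rats at nominal 2.5 or 10 mg/kg, with K2EDTA plasma sampled at 0.5, 1, 2 and 4 h.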

In data set [2] the target is T1, rat NaP2b (SLC34A2) (Rattus norvegicus, UniProt Q9JJ09).
T1 construct: host or cells: HEK293
T1 sequence (Q9JJ09 1-695): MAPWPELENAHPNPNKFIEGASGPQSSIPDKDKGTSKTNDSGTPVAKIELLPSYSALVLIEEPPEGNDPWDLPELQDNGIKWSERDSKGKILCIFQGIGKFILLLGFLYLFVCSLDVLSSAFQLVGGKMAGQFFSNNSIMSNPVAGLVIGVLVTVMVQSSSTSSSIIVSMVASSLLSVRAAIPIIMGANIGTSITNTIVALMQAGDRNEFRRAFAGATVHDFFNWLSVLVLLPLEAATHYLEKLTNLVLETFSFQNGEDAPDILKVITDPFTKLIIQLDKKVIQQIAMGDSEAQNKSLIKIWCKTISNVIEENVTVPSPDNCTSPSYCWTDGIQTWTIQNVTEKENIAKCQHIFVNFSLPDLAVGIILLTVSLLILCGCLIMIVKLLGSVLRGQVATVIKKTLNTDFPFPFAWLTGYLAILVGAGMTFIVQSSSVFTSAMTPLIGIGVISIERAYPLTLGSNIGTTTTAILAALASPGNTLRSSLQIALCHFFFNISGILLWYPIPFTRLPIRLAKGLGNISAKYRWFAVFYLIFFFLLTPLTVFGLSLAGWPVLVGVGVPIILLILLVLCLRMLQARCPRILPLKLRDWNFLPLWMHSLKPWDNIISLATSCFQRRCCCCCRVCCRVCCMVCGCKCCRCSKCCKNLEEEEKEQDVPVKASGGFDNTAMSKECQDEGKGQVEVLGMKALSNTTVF
The data set is described as follows: Inhibition of NaP2b-mediated Pi (33P) uptake in transfected HEK293 cells, rat NaP2b. It is filed as cell-based. The note with it: 33P Pi uptake, 0.1 mM phosphate, value given as pIC50 range. In short, it runs like this:
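The cells transiently expressed NaP2b after Lipofectamine transfection. Each compound was run in duplicate over twelve concentrations, 0.1 nM–30 uM.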

Setting [3] is: Table 15, actual oral dose 3-15 mg/kg, plasma 0.5-4 h.

The structures appear in SMILES notation. Several values for one entry are separate records, joined by “and”; a condition that tells them apart may be missing. Equal values may be shown once.

As for `O=C(O)c1cccc(SCc2cccc(C(=O)Nc3ccc(N4CCCCC4)cc3-c3cc(C(=O)NCc4cccc(C(F)(F)F)c4)ccn3)c2)c1` [Example 8.1, 3-(3-(4-(piperidin-1-yl)-2-(4-(3-(trifluoromethyl)benzylcarbamoyl)pyridin-2-yl)phenylcarbamoyl)benzylthio)benzoic acid], in data set [1] (setting [3]), the AUC was below 30 ng·h/mL and the Cmax was below 10 ng/mL. Moreover, the 50% inhibitory concentration (IC50) in data set [2] was 10 to 31.6 µM and < 1 µM.

In data set [1] (setting [3]), `O=C(NCc1cccc(C(F)(F)F)c1)c1ccnc(-c2cc(N3CCCCC3)ccc2NC(=O)c2cccc(CSc3ccc(C(=O)O)c(Br)c3)c2)c1` [Example 8.21] came in with an AUC below 30 ng·h/mL and a peak concentration (Cmax) below 30 ng/mL. In data set [2], the IC50 is 1 to 7.94 µM.

`CN(CCN1CCOCC1)C(=O)c1cccc(C(=O)Nc2ccc(N3CCCCC3)cc2-c2cc(C(=O)NCc3cccc(C(F)(F)F)c3)ccn2)c1` [Example 80, N1-Methyl-N1-(2-morpholinoethyl)-N3-(4-(piperidin-1-yl)-2-(4-((3-(trifluoromethyl)benzyl)carbamoyl)pyridin-2-yl)phenyl)isophthalamide]: the Cmax in data set [1] (setting [3]) is below 10 ng/mL. Also, in data set [2], the half-maximal inhibitory concentration (IC50) is 1 to 7.94 µM.

In data set [1] (setting [3]), `CN(CCOCCOCCOCCC(=O)O)C(=O)Cc1cccc(SCc2cccc(C(=O)Nc3ccc(N4CCCCC4)cc3-c3cc(C(=O)NCc4cccc(C(F)(F)F)c4)ccn3)c2)c1` [Example 138] displayed an AUC below 10 ng·h/mL and a maximum concentration (Cmax) below 10 ng/mL. In data set [2], this compound gave an IC50 of 1 to 7.94 µM.

In data set [1] (setting [3]), `O=C(O)CCOCCOCCOCCOCCSCc1cccc(C(=O)Nc2ccc(N3CCCCC3)cc2-c2cc(C(=O)N[C@H]3CCCc4ccccc43)ccn2)c1` [Example 142, 1-(3-{[4-(piperidin-1-yl)-2-(4-{[(1S)-1,2,3,4-tetrahydronaphthalen-1-yl]carbamoyl}pyridin-2-yl)phenyl]carbamoyl}phenyl)-5,8,11,14-tetraoxa-2-thiaheptadecan-17-oic acid] returned an exposure (AUC) below 10 ng·h/mL and a Cmax below 10 ng/mL. In data set [2], this compound had an IC50 below 1 µM.

In data set [1] (setting [3]), `CCN(CC)c1ccc(NC(=O)c2cccc(CSc3cccc(CC(=O)N(C)CCOCCOCCOCCC(=O)O)c3)c2)c(-c2cc(C(=O)NCc3cccc(C(F)(F)F)c3)ccn2)c1` [Example 144, 3-(2-(2-(2-(2-(3-(3-(4-(diethylamino)-2-(4-(3-(trifluoromethyl)benzylcarbamoyl)pyridin-2-yl)phenylcarbamoyl)benzylthio)phenyl)-N-methylacetamido)ethoxy)ethoxy)ethoxy)propanoic acid] came in with an area under the curve (AUC) below 10 ng·h/mL and a Cmax below 10 ng/mL. Besides, the concentration for half-maximal inhibition (IC50) in data set [2] was below 1 µM.

Take `CCN(CC)c1ccc(NC(=O)c2cccc(CSCCOCCOCCOCCOCCOCCOCCOCCOCCC(=O)O)c2)c(-c2cc(C(=O)N[C@H]3CCCc4ccccc43)ccn2)c1` [Example 161, (S)-1-(3-(4-(diethylamino)-2-(4-(1,2,3,4-tetrahydronaphthalen-1-ylcarbamoyl)pyridin-2-yl)phenylcarbamoyl)phenyl)-5,8,11,14,17,20,23,26-octaoxa-2-thianonacosan-29-oic acid]: in data set [1] (setting [3]), the AUC was below 10 ng·h/mL and the Cmax was below 10 ng/mL. This compound gave an IC50 in data set [2] of 1 to 7.94 µM.

In data set [1] (setting [3]), `CCN(CC)c1ccc(NC(=O)c2cccc(CSCCOCCOCCOCCOCCC(=O)O)c2)c(-c2cc(C(=O)NCc3cccc(C(F)(F)F)c3)ccn2)c1` [Example 162, 1-(3-(4-(diethylamino)-2-(4-(3-(trifluoromethyl)benzylcarbamoyl)pyridin-2-yl)phenylcarbamoyl)phenyl)-5,8,11,14-tetraoxa-2-thiaheptadecan-17-oic acid] gave an AUC below 10 ng·h/mL and a maximum concentration (Cmax) below 10 ng/mL. The IC50 in data set [2] was below 1 µM.

Consider `CCN(CC)c1ccc(NC(=O)c2cccc(CSCCOCCOCCOCCOCCOCCOCCOCCOCCC(=O)O)c2)c(-c2cc(C(=O)NCc3cccc(C(F)(F)F)c3)ccn2)c1` [Example 166, 1-(3-(4-(diethylamino)-2-(4-(3-(trifluoromethyl)benzylcarbamoyl)pyridin-2-yl)phenylcarbamoyl)phenyl)-5,8,11,14,17,20,23,26-octaoxa-2-thianonacosan-29-oic acid], for which the AUC is below 10 ng·h/mL in data set [1] (setting [3]) and below 50 ng·h/mL in data set [1] (Table 15, actual oral dose 15-40 mg/kg, plasma 0.5-4 h). Further, the peak concentration (Cmax) in data set [1] (setting [3]) is below 10 ng/mL; in data set [1] (Table 15, plasma 0.5-4 h) it was above 50 ng/mL. Also, the IC50 in data set [2] is 1 to 7.94 µM.

Regarding `O=C(O)CCOCCOCCOCCNC(=O)c1cccc2c1ccn2Cc1cccc(C(=O)Nc2ccc(N3CCCCC3)cc2-c2cc(C(=O)N[C@H]3CCCc4ccccc43)ccn2)c1` [Example 181, (S)-1-oxo-1-(1-(3-(4-(piperidin-1-yl)-2-(4-(1,2,3,4-tetrahydronaphthalen-1-ylcarbamoyl)pyridin-2-yl)phenylcarbamoyl)benzyl)-1H-indol-4-yl)-5,8,11-trioxa-2-azatetradecan-14-oic acid], in data set [1] (setting [3]), the AUC is below 30 ng·h/mL and the Cmax is below 30 ng/mL. Besides, in data set [2], the IC50 was below 1 µM.

In data set [1] (setting [3]), `CCN(CC)c1ccc(NC(=O)c2cccc(C(=O)N(C)CCOCCOCCOCCC(=O)O)c2)c(-c2cc(C(=O)NCc3cccc(C(F)(F)F)c3)ccn2)c1` [Example 188, 1-(3-((4-(diethylamino)-2-(4-((3-(trifluoromethyl)benzyl)carbamoyl)pyridin-2-yl)phenyl)carbamoyl)phenyl)-2-methyl-1-oxo-5,8,11-trioxa-2-azatetradecan-14-oic acid] had an AUC below 10 ng·h/mL and a Cmax below 10 ng/mL. In data set [2], this compound showed a concentration for half-maximal inhibition (IC50) of 1 to 7.94 µM.

As for `CCCN(CCC)c1ccc(NC(=O)c2cccc(COCCOCCOCCOCCOCCOCCOCCOCCOC)c2)c(-c2cc(C(=O)NCc3cccc(C(F)(F)F)c3)ccn2)c1` [Example 200, 2-(2-(3-(2,5,8,11,14,17,20,23,26-nonaoxaheptacosyl)benzamido)-5-(dipropylamino)phenyl)-N-(3-(trifluoromethyl)benzyl)isonicotinamide], in data set [1] (setting [3]), the exposure (AUC) is below 30 ng·h/mL and the peak concentration (Cmax) is below 30 ng/mL. Moreover, the half-inhibitory concentration (IC50) in data set [2] was 1 to 7.94 µM.

With `CCN(CC)c1ccc(NC(=O)c2cccc(CCCOCCOCCOCCOCCC(=O)O)c2)c(-c2cc(C(=O)NCc3cccc(C(F)(F)F)c3)ccn2)c1` [Example 251, 16-(3-(4-(diethylamino)-2-(4-(3-(trifluoromethyl)benzylcarbamoyl)pyridin-2-yl)phenylcarbamoyl)phenyl)-4,7,10,13-tetraoxahexadecan-1-oic acid], in data set [1] (setting [3]), the area under the curve (AUC) is below 10 ng·h/mL and the Cmax was below 10 ng/mL. The same compound showed a concentration for half-maximal inhibition (IC50) in data set [2] of 1 to 7.94 µM.

For `O=C(O)CCOCCOCCOCCOCCCc1cccc(C(=O)Nc2ccc(N3CCCCC3)cc2-c2cc(C(=O)N[C@H]3CCCc4ccccc43)ccn2)c1` [Example 252, 3-(2-(2-(2-(3-(3-((2-(4-(((S)-1,2,3,4-tetrahydronaphthalen-1-yl)carbamoyl)pyridin-2-yl)-4-(piperidin-1-yl)phenyl)carbamoyl)phenyl)propoxy)ethoxy)ethoxy)ethoxy)propanoic acid], in data set [1] (setting [3]), the AUC is below 30 ng·h/mL and the peak concentration (Cmax) is below 30 ng/mL. This compound also gave an IC50 in data set [2] below 1 µM.

In data set [1] (setting [3]), `CCN(CC)c1ccc(NC(=O)c2cccc(CCCOCCOCCOCCOCCOCCOCCOCCOCCOC)c2)c(-c2cc(C(=O)N[C@H]3CCCc4ccccc43)ccn2)c1` [Example 261, (S)-2-(2-(3-(2,5,8,11,14,17,20,23,26-nonaoxanonacosan-29-yl)benzamido)-5-(diethylamino)phenyl)-N-(1,2,3,4-tetrahydronaphthalen-1-yl)isonicotinamide] gave an AUC above 50 ng·h/mL and a Cmax below 50 ng/mL. The IC50 in data set [2] is below 1 µM.

Turning to `CCN(CC)c1ccc(NC(=O)c2cccc(CSCCOCCOCCOCCOCCOCCOCCOCCOC)c2)c(-c2cc(C(=O)NCc3cccc(C(F)(F)F)c3)ccn2)c1` [Example 265, 2-(2-(3-(2,5,8,11,14,17,20,23-octaoxa-26-thiaheptacosan-27-yl)benzamido)-5-(diethylamino)phenyl)-N-(3-(trifluoromethyl)benzyl)isonicotinamide], in data set [1] (setting [3]), the area under the curve (AUC) was below 30 ng·h/mL and the Cmax was below 30 ng/mL. The IC50 in data set [2] was below 1 µM.

In data set [1] (setting [3]), `CCN(CC)c1ccc(NC(=O)c2cccc(CCCOCCOCCOCCOCCOCCOCCOCCOCCOC)c2)c(-c2cc(C(=O)NCc3cccc(C(F)(F)F)c3)ccn2)c1` [Example 269, 2-(2-(3-(2,5,8,11,14,17,20,23,26-nonaoxanonacosan-29-yl)benzamido)-5-(diethylamino)phenyl)-N-(3-(trifluoromethyl)benzyl)isonicotinamide] had an exposure (AUC) below 10 ng·h/mL and a peak concentration (Cmax) below 10 ng/mL. For the same compound, the half-maximal inhibitory concentration (IC50) in data set [2] is 1 to 7.94 µM.

Values taken from patent publication US20140023611A1 (priority 2010, published 2014).
